pIC50: −log10 of the molar value. A value given as a limit tells only on which side of the number the result lay.

Experimental findings from PMC10265916, “Elraglusib (formerly 9-ING-41) possesses potent anti-lymphoma properties which cannot be attributed to GSK3 inhibition” (Cell Communication and Signaling : CCS, 2023) are described below.

What all share (type): biochemical
The target of one experiment is T1, GSK3β (Homo sapiens, UniProt P49841).
T1 construct: gene GSK3B
The experiment is described as follows: in vitro GSK3β kinase assay (IC50) and […] cell-free kinase screen.

The target of experiment [1] is T2, MST2 (serine/threonine-protein kinase 3, STK3) (Homo sapiens, UniProt Q13188).
T2 sequence (Q13188 1-491): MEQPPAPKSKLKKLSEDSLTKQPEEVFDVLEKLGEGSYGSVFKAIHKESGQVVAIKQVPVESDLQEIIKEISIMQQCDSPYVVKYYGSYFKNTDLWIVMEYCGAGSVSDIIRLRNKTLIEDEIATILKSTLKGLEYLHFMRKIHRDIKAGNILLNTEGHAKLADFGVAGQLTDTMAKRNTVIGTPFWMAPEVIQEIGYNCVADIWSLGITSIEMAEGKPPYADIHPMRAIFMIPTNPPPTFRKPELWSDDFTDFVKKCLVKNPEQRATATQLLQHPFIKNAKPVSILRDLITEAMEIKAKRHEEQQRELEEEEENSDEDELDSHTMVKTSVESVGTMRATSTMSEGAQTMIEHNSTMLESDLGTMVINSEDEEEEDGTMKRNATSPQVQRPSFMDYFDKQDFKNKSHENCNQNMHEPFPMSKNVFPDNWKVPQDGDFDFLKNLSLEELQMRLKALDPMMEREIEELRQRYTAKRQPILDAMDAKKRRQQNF
The experiment is described as follows: […] cell-free kinase screen, […] inhibition at […].

Experiment [2] has as its target PIM3 (proto-oncogene serine/threonine-protein kinase 3) (Homo sapiens, UniProt Q86V86). The experiment is described as follows: […] cell-free kinase screen, […] inhibition at […].
Experiment [3] addresses PIM1 (proto-oncogene serine/threonine-protein kinase 1) (Homo sapiens, UniProt P11309). The experiment is described as follows: […] cell-free kinase screen, […] inhibition at […].

T1 sequence (P49841 whole entry): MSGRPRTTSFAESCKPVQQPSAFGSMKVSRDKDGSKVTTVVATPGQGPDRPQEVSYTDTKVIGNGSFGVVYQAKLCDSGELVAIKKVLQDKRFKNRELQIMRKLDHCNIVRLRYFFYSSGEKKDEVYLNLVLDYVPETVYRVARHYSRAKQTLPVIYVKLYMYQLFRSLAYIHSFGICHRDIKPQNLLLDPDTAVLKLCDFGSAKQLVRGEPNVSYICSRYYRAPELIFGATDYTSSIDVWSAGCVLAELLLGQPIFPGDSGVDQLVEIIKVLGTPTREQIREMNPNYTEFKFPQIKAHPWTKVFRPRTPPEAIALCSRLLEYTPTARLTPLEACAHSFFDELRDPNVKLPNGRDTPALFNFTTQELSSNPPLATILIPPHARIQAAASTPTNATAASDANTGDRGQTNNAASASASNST
Sequence of PIM1 (proto-oncogene serine/threonine-protein kinase 1) (P11309 whole entry): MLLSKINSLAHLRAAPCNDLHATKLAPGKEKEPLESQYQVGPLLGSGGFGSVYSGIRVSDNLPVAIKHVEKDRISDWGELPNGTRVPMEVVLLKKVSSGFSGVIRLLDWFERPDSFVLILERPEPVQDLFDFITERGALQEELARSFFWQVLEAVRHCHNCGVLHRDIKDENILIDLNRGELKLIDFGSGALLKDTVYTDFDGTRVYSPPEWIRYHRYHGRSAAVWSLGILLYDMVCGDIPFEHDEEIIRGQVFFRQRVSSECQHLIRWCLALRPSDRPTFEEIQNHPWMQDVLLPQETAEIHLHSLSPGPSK

For `Cn1cc(C2=C(c3coc4ccc(F)cc34)C(=O)NC2=O)c2cc3c(cc21)OCO3` [elraglusib], the pIC50 (commonly −log10 of the IC50, conventionally taken in molar units) against GSK3β was 6.43. The inhibition at 5 µM in experiment [1], in experiment [2] and in experiment [3] was more than 50% in each case.
